# Results reported in ChEMBL document CHEMBL1132548, “Exploring the structure-activity relationships of [1-(4-tert-butyl-3'-hydroxy)benzhydryl-4-benzylpiperazine] (SL-3111), a high-affinity and selective delta-opioid receptor nonpeptide agonist ligand” (J Med Chem, 1999).
# Key:
# Mu-type opioid receptor [1] = molecular target: Mu-type opioid receptor (Rattus norvegicus, UniProt P33535); assay: In vitro inhibition of [3H]DAMGO (Tyr-D-Ala-Gly-(Me)-Phe-Gly-ol) binding to Opioid receptor mu 1 using rat brain membranes; format: cell membranes, Membrane
# [2] = molecular target: Mu-type opioid receptor (Homo sapiens) (UniProt P35372); assay: Agonist activity using strips of guinea pig ileum longitudinal muscle myenteric plexus at 30 uM; format: functional, tissue-based
# [3] = molecular target: T1, Delta-type opioid receptor (Rattus norvegicus, UniProt P33533); assay: In vitro inhibition of [3H]deltorphin binding to Opioid receptor delta 1 using rat brain membranes.; format: cell membranes, Membrane
# Mu-type opioid receptor [4] = molecular target: Mu-type opioid receptor (Mus musculus, UniProt P42866); assay: Agonist activity using electrically induced smooth muscle contraction of mouse vas deferens.; format: functional
# [5] = molecular target: Mu-type opioid receptor (Mus musculus) (UniProt P42866); settings: Vas deferens; 1 uM
# Description: Agonist activity using electrically induced smooth muscle contraction of mouse vas deferens at 1 uM
# [6] = molecular target: Mu-type opioid receptor (Cavia porcellus) (UniProt P97266); assay: Agonist activity using strips of guinea pig ileum longitudinal muscle myenteric plexus at 10 uM; format: functional, tissue-based
# [7] = molecular target: Mu-type opioid receptor (Mus musculus) (UniProt P42866); assay: Agonist activity using electrically induced smooth muscle contraction of mouse vas deferens at 30 uM; format: functional, tissue-based
# Mu-type opioid receptor [8] = molecular target: Mu-type opioid receptor (Cavia porcellus, UniProt P97266); assay: Agonist activity using strips of guinea pig ileum longitudinal muscle myenteric plexus.; format: functional, tissue-based
# [9] = molecular target: T1, Delta-type opioid receptor; assay: In vitro inhibition of [3H]- [p-Cl-Phe4]DPDPE binding to Opioid receptor delta 1 using rat brain membranes.; format: cell membranes, Membrane
# [10] = molecular target: Mu-type opioid receptor (Homo sapiens) (UniProt P35372); settings: guinea pig; Ileum; at 10 µM
# T1 sequence (P33533 whole entry): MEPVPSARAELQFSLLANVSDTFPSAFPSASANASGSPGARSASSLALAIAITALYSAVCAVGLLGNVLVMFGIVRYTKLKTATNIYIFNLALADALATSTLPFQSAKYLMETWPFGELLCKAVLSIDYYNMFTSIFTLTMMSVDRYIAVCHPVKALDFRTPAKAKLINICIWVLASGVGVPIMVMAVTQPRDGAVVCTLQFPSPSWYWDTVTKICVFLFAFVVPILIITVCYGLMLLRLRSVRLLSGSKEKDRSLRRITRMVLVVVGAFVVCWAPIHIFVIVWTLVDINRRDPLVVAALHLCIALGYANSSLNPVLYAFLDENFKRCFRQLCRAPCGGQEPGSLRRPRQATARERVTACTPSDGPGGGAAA
# Sequence of Mu-type opioid receptor (Rattus norvegicus, UniProt P33535) (P33535 whole entry): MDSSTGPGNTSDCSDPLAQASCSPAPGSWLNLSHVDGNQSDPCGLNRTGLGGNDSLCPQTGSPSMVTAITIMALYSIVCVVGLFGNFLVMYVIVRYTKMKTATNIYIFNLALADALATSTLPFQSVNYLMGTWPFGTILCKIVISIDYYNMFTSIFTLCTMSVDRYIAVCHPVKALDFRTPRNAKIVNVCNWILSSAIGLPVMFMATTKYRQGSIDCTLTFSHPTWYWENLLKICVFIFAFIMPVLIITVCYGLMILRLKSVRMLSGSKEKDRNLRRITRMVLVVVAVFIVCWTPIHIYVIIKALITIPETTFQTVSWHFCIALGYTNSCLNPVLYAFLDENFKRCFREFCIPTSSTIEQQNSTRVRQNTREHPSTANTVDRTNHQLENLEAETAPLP
# Sequence of Mu-type opioid receptor (Mus musculus, UniProt P42866) (P42866 whole entry): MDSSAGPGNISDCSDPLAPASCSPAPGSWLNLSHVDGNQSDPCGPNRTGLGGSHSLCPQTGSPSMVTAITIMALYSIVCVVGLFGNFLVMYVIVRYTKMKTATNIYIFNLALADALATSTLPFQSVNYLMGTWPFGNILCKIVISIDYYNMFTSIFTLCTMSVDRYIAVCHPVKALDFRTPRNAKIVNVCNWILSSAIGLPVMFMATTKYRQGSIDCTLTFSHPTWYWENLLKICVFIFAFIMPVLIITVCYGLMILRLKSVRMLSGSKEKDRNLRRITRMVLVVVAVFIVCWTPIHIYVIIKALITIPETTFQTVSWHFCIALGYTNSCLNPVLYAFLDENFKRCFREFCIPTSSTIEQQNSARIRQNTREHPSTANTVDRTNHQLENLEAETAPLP
# Sequence of Mu-type opioid receptor (Homo sapiens) (P35372 whole entry): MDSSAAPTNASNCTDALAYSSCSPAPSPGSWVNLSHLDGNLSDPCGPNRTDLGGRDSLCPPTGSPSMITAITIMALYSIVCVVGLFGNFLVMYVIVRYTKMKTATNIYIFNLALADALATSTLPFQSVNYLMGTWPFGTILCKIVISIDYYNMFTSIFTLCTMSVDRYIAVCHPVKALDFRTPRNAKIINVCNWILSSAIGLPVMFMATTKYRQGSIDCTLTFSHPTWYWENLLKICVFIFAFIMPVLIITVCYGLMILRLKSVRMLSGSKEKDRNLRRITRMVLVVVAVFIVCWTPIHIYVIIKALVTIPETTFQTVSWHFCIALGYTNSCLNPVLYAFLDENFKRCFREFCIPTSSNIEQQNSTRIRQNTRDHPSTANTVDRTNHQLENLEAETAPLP
# Sequence of Mu-type opioid receptor (Mus musculus) (P42866 whole entry): as the sequence (P42866 whole entry) above
# Sequence of Mu-type opioid receptor (Cavia porcellus, UniProt P97266) (P97266 whole entry): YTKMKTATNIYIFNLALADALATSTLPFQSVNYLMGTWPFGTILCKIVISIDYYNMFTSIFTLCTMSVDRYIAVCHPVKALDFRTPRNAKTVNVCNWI
# Sequence of Mu-type opioid receptor (Cavia porcellus) (P97266 whole entry): as above
SMILES,IC50 (Mu-type opioid receptor [1]) [µM],IC50 [3] [µM],IC50 (Mu-type opioid receptor [4]) [µM],other results
C[C@H]1CN(Cc2ccccc2)CCN1C(c1ccc(C(C)(C)C)cc1)c1cccc(O)c1 (stereo partly drawn),3.3,0.011,0.29,inhibition [2]: 0%
CC(C)(C)c1ccc(C(c2cccc(O)c2)N2CCN(Cc3ccccc3)C[C@@H]2Cc2ccccc2)cc1 (stereo in doubt; 15c1) [listing 1 of 2 here],,,,inhibition [2]: 0%; inhibition [5]: 10%
CC(C)(C)c1ccc(C(c2cccc(O)c2)N2CCN(Cc3ccccc3)C[C@@H]2COCc2ccccc2)cc1 (stereo partly drawn),26,0.038,,inhibition [6]: 0%; inhibition [7]: 44%
CC(C)(C)c1ccc(C(c2cccc(O)c2)N2CCC(Cc3ccccc3)CC2)cc1 (stereo not drawn),22.9,12.6,,
CC(C)(C)c1ccc(C(c2cccc(O)c2)C2CCN(Cc3ccccc3)CC2)cc1 (stereo not drawn),4.3,0.033,0.39,IC50 (Mu-type opioid receptor [8]): 15.6 µM
S=C1SCN(Cc2ccccc2)CN1Cc1ccccc1 [SULBENTINE],27.9,,,IC50 [9]: 28.6 µM
CC(C)(C)c1ccc(C(c2cccc(O)c2)N2CCN(Cc3ccccc3)C[C@@H]2Cc2ccccc2)cc1 (stereo in doubt; 15c2),46.3,21.3,,
CC(C)(C)c1ccc(C(c2cccc(O)c2)N2CCN(Cc3ccccc3)C[C@@H]2CO)cc1 (stereo partly drawn),7.98,0.038,2.26,inhibition [10]: 36%
O=C(OCc1ccc(O)cc1)N1CSC(=S)N(Cc2ccccc2)C1,38.3,,,IC50 [9]: 44.7 µM
CC(C)(C)c1ccc(C(c2cccc(O)c2)N2CCN(Cc3ccccc3)C[C@@H]2Cc2ccccc2)cc1 (stereo in doubt; 15c1) [listing 2 of 2 here],> 80,> 10,,
